# Assay results: ChEMBL document CHEMBL3611979, “Design, synthesis and biological characterization of selective LIMK inhibitors” (Bioorg Med Chem Lett, 2015)
# pEC50, pIC50: −log10 of the molar value.
# Legend:
# [1] = molecular target: LIM domain kinase 1 (Homo sapiens, UniProt P53667); assay: Inhibition of LIMK1 (unknown origin) by radiometric assay
# [2] = molecular target: LIM domain kinase 2 (Homo sapiens, UniProt P53671); assay: Inhibition of LIMK2 (unknown origin) by radiometric assay
# [3] = molecular target: Rho-associated protein kinase 2 (Homo sapiens, UniProt O75116); assay: Inhibition of ROCK2 (unknown origin) by radiometric assay
# [4] = molecular target: cAMP-dependent protein kinase (PKA) (Homo sapiens, UniProt P22694+P17612+P22612); assay: Inhibition of PKA (unknown origin) by radiometric assay; format: protein assay
# [5] = molecular target: RAC-alpha serine/threonine-protein kinase (Homo sapiens, UniProt P31749); assay: Inhibition of AKT1 (unknown origin) by radiometric assay
# [6] = Inhibition of ROCK in rat A7r5 cells assessed as reduction in MLC Thr18/Ser19 phosphorylation by direct-ELISA method; format: cell-based
# [7] = Inhibition of LIMK in human HeLa cells assessed as reduction in cofilin Ser3 phosphorylation by sandwich immunoassay; format: cell-based
# [8] = test system: Oryctolagus cuniculus; assay: Toxicity in ocular normotensive New Zealand White rabbit assessed as induction of conjunctival hyperemia at 200 µg/eye drop dosed as single topical administration measured 1 to 6 hrs post compound instillation; format: organism-based, Conjunctiva; conditions: in vivo, topical_or_ocular
# Chain of RAC-alpha serine/threonine-protein kinase (P31749 whole entry): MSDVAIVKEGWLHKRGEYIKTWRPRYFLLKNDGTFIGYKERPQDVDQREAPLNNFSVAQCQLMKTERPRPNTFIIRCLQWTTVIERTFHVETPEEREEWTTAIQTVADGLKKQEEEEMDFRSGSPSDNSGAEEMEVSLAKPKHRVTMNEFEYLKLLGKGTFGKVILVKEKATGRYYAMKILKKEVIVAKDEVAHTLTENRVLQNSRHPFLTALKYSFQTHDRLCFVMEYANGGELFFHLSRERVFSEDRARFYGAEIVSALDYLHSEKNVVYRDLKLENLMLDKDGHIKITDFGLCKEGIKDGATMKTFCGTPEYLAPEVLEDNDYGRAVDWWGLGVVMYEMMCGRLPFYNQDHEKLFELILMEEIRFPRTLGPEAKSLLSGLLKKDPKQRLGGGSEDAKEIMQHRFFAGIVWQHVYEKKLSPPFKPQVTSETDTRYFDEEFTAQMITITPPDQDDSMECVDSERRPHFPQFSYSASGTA
# Chain of LIM domain kinase 1 (P53667 whole entry, the tested form may be a part): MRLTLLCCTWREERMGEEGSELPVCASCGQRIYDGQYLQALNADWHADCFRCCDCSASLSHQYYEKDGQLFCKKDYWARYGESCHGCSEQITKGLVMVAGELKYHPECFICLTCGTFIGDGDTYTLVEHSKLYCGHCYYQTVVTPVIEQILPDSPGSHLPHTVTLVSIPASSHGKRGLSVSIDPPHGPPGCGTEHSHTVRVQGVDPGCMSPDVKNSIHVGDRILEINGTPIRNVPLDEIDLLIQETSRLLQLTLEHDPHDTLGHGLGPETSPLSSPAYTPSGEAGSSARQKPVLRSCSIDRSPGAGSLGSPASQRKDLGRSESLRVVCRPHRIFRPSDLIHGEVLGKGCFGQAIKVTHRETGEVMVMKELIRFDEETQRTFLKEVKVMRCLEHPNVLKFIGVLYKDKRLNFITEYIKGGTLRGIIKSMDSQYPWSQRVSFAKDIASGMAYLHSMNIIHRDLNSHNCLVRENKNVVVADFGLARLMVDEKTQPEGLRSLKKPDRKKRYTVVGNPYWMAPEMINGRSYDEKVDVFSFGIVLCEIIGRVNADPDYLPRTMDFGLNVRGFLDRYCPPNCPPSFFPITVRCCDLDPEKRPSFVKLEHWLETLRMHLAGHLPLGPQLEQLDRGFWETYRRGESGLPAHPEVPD
# Chain of LIM domain kinase 2 (P53671 whole entry, the tested form may be a part): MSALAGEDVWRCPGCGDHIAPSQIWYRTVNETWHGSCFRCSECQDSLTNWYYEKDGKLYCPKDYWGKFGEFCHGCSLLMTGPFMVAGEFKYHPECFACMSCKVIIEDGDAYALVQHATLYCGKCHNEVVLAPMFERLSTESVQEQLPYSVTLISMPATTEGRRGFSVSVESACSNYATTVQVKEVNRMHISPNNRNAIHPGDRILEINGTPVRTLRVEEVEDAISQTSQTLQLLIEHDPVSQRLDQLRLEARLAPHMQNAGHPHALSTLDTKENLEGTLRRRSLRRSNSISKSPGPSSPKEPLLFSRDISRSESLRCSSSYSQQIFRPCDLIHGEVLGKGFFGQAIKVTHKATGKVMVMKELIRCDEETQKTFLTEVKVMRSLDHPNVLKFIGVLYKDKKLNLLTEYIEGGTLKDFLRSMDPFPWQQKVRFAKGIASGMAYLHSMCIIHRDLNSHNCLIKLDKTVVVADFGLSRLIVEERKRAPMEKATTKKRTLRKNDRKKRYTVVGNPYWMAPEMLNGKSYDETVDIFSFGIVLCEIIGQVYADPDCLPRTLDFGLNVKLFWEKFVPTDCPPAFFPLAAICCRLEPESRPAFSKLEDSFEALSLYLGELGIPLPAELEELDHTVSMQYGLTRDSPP
# Chain of Rho-associated protein kinase 2 (O75116 whole entry): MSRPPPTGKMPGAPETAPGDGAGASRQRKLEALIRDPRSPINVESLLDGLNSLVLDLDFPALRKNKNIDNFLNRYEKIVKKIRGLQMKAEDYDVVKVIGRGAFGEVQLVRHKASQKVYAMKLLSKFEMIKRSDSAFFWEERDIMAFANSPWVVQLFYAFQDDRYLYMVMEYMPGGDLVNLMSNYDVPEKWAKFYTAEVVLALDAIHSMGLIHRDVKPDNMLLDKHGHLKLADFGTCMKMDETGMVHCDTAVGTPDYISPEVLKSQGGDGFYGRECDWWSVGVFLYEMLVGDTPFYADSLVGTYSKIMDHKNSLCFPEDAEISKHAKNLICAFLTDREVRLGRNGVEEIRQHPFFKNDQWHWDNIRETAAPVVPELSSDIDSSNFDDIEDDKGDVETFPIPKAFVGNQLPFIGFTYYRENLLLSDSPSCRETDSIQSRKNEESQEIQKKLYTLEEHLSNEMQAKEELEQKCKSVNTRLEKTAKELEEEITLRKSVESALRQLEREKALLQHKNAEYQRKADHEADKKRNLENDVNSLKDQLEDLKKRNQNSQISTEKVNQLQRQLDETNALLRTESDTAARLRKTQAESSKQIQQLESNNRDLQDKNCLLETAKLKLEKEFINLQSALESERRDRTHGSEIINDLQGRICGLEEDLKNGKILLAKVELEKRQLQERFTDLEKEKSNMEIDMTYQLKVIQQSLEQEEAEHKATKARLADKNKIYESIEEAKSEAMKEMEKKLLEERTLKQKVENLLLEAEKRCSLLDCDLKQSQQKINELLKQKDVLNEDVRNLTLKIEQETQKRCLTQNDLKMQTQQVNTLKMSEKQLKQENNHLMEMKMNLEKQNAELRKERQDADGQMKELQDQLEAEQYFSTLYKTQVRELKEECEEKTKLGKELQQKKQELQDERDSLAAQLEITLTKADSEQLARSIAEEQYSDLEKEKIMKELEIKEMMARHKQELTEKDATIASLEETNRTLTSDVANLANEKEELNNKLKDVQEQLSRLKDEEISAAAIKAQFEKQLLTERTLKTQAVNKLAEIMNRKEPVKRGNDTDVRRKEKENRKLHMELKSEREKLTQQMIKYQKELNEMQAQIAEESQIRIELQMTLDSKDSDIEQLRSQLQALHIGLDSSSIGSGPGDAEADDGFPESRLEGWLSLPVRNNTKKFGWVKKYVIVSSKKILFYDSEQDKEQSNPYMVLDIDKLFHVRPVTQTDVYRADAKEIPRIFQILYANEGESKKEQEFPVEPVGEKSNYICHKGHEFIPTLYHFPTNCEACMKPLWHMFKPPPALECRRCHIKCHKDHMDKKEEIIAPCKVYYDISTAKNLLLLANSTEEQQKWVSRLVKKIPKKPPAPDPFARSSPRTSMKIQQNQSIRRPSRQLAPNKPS
Structure (SMILES),pIC50 [1],pIC50 [2],pIC50 [3],IC50 [4] [nM],pIC50 [5],pEC50 [6],pEC50 [7],Activity [8]
COC(=O)c1cccc(NC(=O)C2(CN)CCN(c3ncnc4[nH]cc(C)c34)CC2)c1,7.80,> 9.00,> 9.00,< 1,–,–,–,–
Cc1c[nH]c2ncnc(N3CCC(CN(C)C)(C(=O)Nc4cccc(OC(=O)N(C)C)c4)CC3)c12,7.72,> 9.00,7.40,2.6,–,–,–,–
COC(=O)c1cccc(NC(=O)C2(CN(C)C)CCN(c3ncnc4[nH]cc(C)c34)CC2)c1,7.57,8.82,8.05,24,–,–,–,–
COC(=O)c1cccc(NC(=O)C2(N)CCN(c3ncnc4[nH]cc(C)c34)CC2)c1,7.74,8.13,7.00,81,–,–,–,–
COC(=O)c1cccc(NC(=O)C2(N(C)C)CCN(c3ncnc4[nH]cc(C)c34)CC2)c1,7.43,7.92,7.20,150,–,–,–,–
COC(=O)COc1cccc(NC(=O)C2(CN(C)C)CCN(c3ncnc4[nH]cc(C)c34)CC2)c1,7.42,> 9.00,8.10,5.4,–,–,–,–
COC(=O)Cc1cccc(NC(=O)C2(CN(C)C)CCN(c3ncnc4[nH]cc(C)c34)CC2)c1,7.24,> 9.00,7.25,7,–,–,–,–
COC(=O)c1ccc(NC(=O)C2(CN(C)C)CCN(c3ncnc4[nH]cc(C)c34)CC2)cc1,7.39,8.11,8.14,2.7,–,–,–,–
CCCOC(=O)c1cccc(NC(=O)C2(CN(C)C)CCN(c3ncnc4[nH]cc(C)c34)CC2)c1,7.30,8.68,7.39,5.8,–,–,–,–
Cc1c[nH]c2ncnc(N3CCC(CN(C)C)(C(=O)Nc4cccc(C(=O)OC(C)C)c4)CC3)c12,7.39,8.66,7.28,22,–,–,–,–
CCC(C)OC(=O)c1cccc(NC(=O)C2(CN(C)C)CCN(c3ncnc4[nH]cc(C)c34)CC2)c1 (stereo not given),7.30,8.34,6.86,24,–,–,–,–
C#CCOC(=O)c1cccc(NC(=O)C2(CN(C)C)CCN(c3ncnc4[nH]cc(C)c34)CC2)c1,8.12,> 9.00,7.80,2.2,–,–,–,–
COC(=O)c1cccc(NC(=O)C2(CN(C)C)CCN(c3ncnc4[nH]ccc34)CC2)c1,7.64,7.89,8.74,1.1,–,–,–,–
COC(=O)c1cccc(NC(=O)C2(CN(C)C)CCN(c3ncnc4[nH]ncc34)CC2)c1,6.55,6.71,7.21,5.1,–,–,–,–
COC(=O)c1cccc(NC(=O)C2(CN(C)C)CCN(c3ccnc4[nH]ncc34)CC2)c1,7.19,6.56,7.96,3.8,–,–,–,–
COC(=O)c1cccc(NC(=O)C2(CN(C)C)CCN(c3ncnc4c3CC(=O)N4)CC2)c1,6.00,5.73,< 5.00,1130,–,–,–,–
COC(=O)c1cccc(NC(=O)C2(N)CCN(c3ncnc4[nH]ccc34)CC2)c1,7.51,8.02,7.17,69,–,–,–,–
COC(=O)c1cccc(NC(=O)C2(N)CCN(c3ccncn3)CC2)c1,< 6.00,< 5.00,< 6.00,> 1000,–,–,–,–
COC(=O)c1cccc(NC(=O)C2(N)CCN(c3cc(N)ncn3)CC2)c1,6.02,5.34,5.69,> 1000,–,–,–,–
COC(=O)c1cccc(NC(=O)C2(N)CCN(c3ccnc(N)n3)CC2)c1,< 6.00,< 5.00,6.38,> 1000,–,–,–,–
COC(=O)c1cccc(NC(=O)C2(N)CCN(c3cc(NC(C)=O)ncn3)CC2)c1,6.62,6.31,< 6.00,> 1000,–,–,–,–
COC(=O)c1cccc(NC(=O)C2(N)CCN(c3ccnc(NC(C)=O)n3)CC2)c1,< 5.00,< 5.00,< 6.00,> 1000,–,–,–,–
COC(=O)c1cccc(NC(=O)C2(CN(C)C)CCN(c3ncnc4[nH]cc(C#N)c34)CC2)c1,7.60,8.40,8.60,< 1,–,–,–,–
COC(=O)c1cccc(NC(=O)C2(CN(C)C)CCN(c3ncnc4[nH]cc(F)c34)CC2)c1,7.70,8.55,8.24,< 1,–,–,–,–
COC(=O)c1cccc(NC(=O)C2(CN(C)C)CCN(c3ncnc4[nH]c(C)cc34)CC2)c1,7.64,8.10,6.19,332,–,–,–,–
COC(=O)c1cccc(NC(=O)C2(CN(C)C)CCN(c3ncnc4[nH]c(C)c(C)c34)CC2)c1,7.59,8.80,< 6.00,> 1000,< 6.00,< 5.00,–,–
Cc1[nH]c2ncnc(N3CCC(CN(C)C)(C(=O)Nc4cccc(OC(=O)N(C)C)c4)CC3)c2c1C,7.66,8.85,< 6.00,> 1000,< 6.00,< 5.00,8.05,–
Cc1c[nH]c2ncnc(N3CCC(CN)(C(=O)Nc4cccc(OC(=O)N(C)C)c4)CC3)c12 [LX-7101],–,8.80,8.00,< 1,> 9.00,5.64,8.06,Toxic
